Assay results published in PMC11173104, “Synthesis and Antioxidant Activity of N-Benzyl-2-[4-(aryl)-1H-1,2,3-triazol-1-yl]ethan-1-imine Oxides” (International Journal of Molecular Sciences, 2024).

How the values were obtained:
[1] = Reducing activity (RA): interaction with the stable free radical DPPH; conditions: 100 µM
Experimental: DPPH is a stable free radical, advantageous for testing compounds in an ethanolic solution, which in its oxidized form presents a maximum absorbance at about 517 nm. The DPPH method is independent of the molecule’s polarity. […] Nitrones 10b, 10c, and 10d highly interact with DPPH (64.5–81%) after 20 min, whereas 10a presents a lower value. In general, the insertion of a substituent increases the reducing activity (RA). […] It seems that an acceptor, such as a fluorine atom, with small molar refractivity (MR) in the para position offers antioxidant ability. […] RA is not influenced by lipophilicity within this nitrones group. The interaction values are increased for all after 60 min (78–81%), showing time dependency. For the sake of comparison, NDGA was used as a standard reference compound.
To an ethanolic solution of DPPH (0.05 mM) in absolute ethanol, 10 µL from a stock solution (10 mM) in the DMSO of the compounds was added. The mixture was shaken vigorously and allowed to stand for 20 min or 60 min; absorbance at 517 nm was determined spectrophotometrically and the percentage of activity was calculated. All tests were undertaken on three or four replicates and the results were averaged (Table 1). NDGA was used as a reference compound.

[2] = Competition with DMSO for hydroxyl radicals; conditions: 100 µM; Fe3+/ascorbic acid, 37 °C, 30 min
Experimental: Hydroxyl (^•OH) free radical is counted as the most toxic. As a result, it reacts with important biological molecules such as DNA, lipids, or carbohydrates. We found it interesting to test the scavenging activity of the compounds in competition with DMSO.
The hydroxyl radicals were produced by the Fe^3+/ascorbic acid system and detected by the determination of the formaldehyde produced from the oxidation of DMSO. EDTA (0.1 mM), Fe^3+ (167 μM), DMSO (33 mM) in phosphate buffer (50 mM, pH 7.4), the tested compounds (100 µM) and ascorbic acid (10 mM) were inserted, mixed, and incubated in test tubes at 37 °C for 30 min. The reaction was stopped by CCl3COOH (17% w/v) and the % scavenging activity of the nitrones for hydroxyl radicals was recorded. Trolox was used as a positive control (Table 1).

soybean LOX = target: T1, soybean LOX (Glycine max, UniProt P08170); assay: Soybean LOX inhibition in vitro (UV absorbance-based); format: biochemical; conditions: for IC50: Tris pH 9, sodium linoleate
T1 construct: purchased Aldrich Chemical Co., Milwaukee, WI, USA
T1 sequence (P08170 1-839): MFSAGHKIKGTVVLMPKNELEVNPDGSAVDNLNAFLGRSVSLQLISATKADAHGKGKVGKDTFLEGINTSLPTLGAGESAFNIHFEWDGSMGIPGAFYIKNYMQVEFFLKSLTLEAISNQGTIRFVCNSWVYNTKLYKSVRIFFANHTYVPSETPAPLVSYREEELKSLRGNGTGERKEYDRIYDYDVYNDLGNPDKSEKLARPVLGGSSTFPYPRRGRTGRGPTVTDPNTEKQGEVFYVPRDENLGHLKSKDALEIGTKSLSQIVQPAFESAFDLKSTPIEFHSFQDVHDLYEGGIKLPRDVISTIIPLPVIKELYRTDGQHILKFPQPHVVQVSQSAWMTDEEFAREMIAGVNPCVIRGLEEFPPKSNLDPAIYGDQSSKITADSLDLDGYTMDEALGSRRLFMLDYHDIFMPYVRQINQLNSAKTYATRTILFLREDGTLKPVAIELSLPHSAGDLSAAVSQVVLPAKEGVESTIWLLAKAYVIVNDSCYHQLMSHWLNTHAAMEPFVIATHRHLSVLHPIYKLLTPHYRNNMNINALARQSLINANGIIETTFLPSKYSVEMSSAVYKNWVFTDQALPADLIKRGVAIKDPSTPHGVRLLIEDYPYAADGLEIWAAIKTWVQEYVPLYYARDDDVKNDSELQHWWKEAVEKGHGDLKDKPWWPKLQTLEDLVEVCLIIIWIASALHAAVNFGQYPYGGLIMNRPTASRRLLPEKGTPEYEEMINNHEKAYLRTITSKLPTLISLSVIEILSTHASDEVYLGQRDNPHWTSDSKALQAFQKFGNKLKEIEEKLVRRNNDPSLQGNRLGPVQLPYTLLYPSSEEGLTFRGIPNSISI
Excerpt: The appropriate stimulation of neutrophils cleaves arachidonic acid (AA) from membrane phospholipids, producing leukotrienes through lipoxygenase. Leukotriene B4 (LTB4) is a potent mediator of inflammation, considered to be important in the pathogenesis of neutrophil-mediated inflammatory diseases with a marked relation to the severity of cardiovascular diseases, stroke, and cancer. The enzyme lipoxygenase catalyzes the first two steps in the metabolism of AA, which is cleaved from membrane phospholipids to leukotrienes (LTB4). LTB4 generation is important in the pathogenesis of neutrophil-mediated inflammatory diseases.
The tested compounds dissolved in DMSO were incubated at rt with sodium linoleate (0.1 mL) and 0.2 mL of the enzyme solution (1/9 × 10^−4 w/v in saline) in buffer Tris pH 9.

[3] = Inhibition of AAPH-induced linoleic acid lipid peroxidation (ILP); conditions: 100 µM, 37 °C, pH 7.4
Excerpt: In our studies, the water-soluble azo AAPH was used as a thermal free radical initiator to induce the oxidative changes of linoleic acid to conjugated diene hydroperoxide. All nitrones except for 10c presented inhibition values (75–87%) lower than the common standard Trolox (93%) (Table 1). […] Lipophilicity seems to play a significant role related to a positive result since the inserted methyl group in compound 10b (75%) increases the lipophilicity of compound 10d driving it to higher inhibition (87%).
Ten microliters of the 16 mM linoleic acid sodium salt solution were added to the UV cuvette containing 0.93 mL of the 0.05 M phosphate buffer, pH 7.4 prethermostated at 37 °C. The oxidation reaction was initiated at 37 °C under air by the addition of 50 μL of the 40 mM AAPH solution. Oxidation was carried out in the presence of 10 μL of the compounds’ stock 10 mM solution in DMSO, in the assay. Lipid oxidation was measured in the presence of the same level of DMSO. The rate of oxidation at 37 °C was recorded as the absorption values at 234 nm and compared to Trolox (Table 1).

[4] = ABTS•+ decolorization assay in ethanolic solution; conditions: 100 µM; 734 nm, 1 min
Experimental: ABTS^•+ was produced according to the described procedure as follows. An ABTS stock solution in water (7 mM) was mixed with potassium persulfate (2.45 mM) and left in a dark at room temperature for 12–16 h before use. A total of 10 µL of the investigated compounds were added to ethanol together with the cationic radical. The results were taken at 734 nm, after 1 min of the mixing procedure. Trolox was used as a positive standard (Table 1).

[5] = design: method as in PMID 36670898; conditions: previous work; cited from earlier work

SMILES	RA (%) 20 min [1]	RA (%) 60 min [1]	Scavenging Activity for HO• (%) [2]	IC50 (soybean LOX)	melting point	ILP (%) [3]	ABTS•+ (%) [4]	inhibition at 100 µM (soybean LOX; at 100 µM)	hydroxyl radical scavenging (%) [5]
CC(Cc1ccc(O)c(O)c1)C(C)Cc1ccc(O)c(O)c1 (stereo not drawn) [NDGA, nordihydroguaiaretic acid, reference compound]	88%	96%	–	–	–	–	–	–	–
[O-][N+](=CCn1cc(-c2ccccc2)nn1)Cc1ccccc1 [Nitrone 10a, N-Benzyl-2-(4-phenyl-1H-1,2,3-triazol-1-yl)ethan-1-imine Oxide]	57%	78%	no	85 µM	134 to 136 °C	81%	8%	–	–
[O-][N+](=CCn1cc(-c2ccc(F)cc2)nn1)Cc1ccccc1 [Nitrone 10b, N-Benzyl-2-[4-(4-fluorophenyl)-1H-1,2,3-triazol-1-yl]ethan-1-imine Oxide]	81/81%	81/81%	no	62.5 µM	129 to 131 °C	75%	46%	–	–
[O-][N+](=CCn1cc(-c2ccc(F)cc2F)nn1)Cc1ccccc1 [Nitrone 10c, N-Benzyl-2-[4-(2,4-difluorophenyl)-1H-1,2,3-triazol-1-yl]ethan-1-imine Oxide]	79/79%	79/79%	no	10 µM	112 to 113 °C	–	23%	–	–
Cc1cc(-c2cn(CC=[N+]([O-])Cc3ccccc3)nn2)ccc1F [Nitrone 10d, N-Benzyl-2-[4-(4-fluoro-3-methylphenyl)-1H-1,2,3-triazol-1-yl]ethan-1-imine Oxide]	64.4%	79.5%	no	–	131 to 133 °C	87%	23%	45%	–
Cc1c(C)c2c(c(C)c1O)CCC(C)(C(=O)O)O2 (stereo not drawn) [Trolox, reference compound]	–	–	73%	–	–	93%	91%	–	88%
